Data as given in patent US20130059900A1, “CRYSTAL FORM I OF (S)-4-HYDROXY-2-OXO-1-PYRROLIDINE ACETAMIDE, PREPARING METHOD AND USE THEREOF” (priority 2010, published 2013).

Test system: rats having permanent occlusion of the bilateral carotid arteries
Assay: Morris Water Maze, memory dysfunction of rats caused by chronic cerebral ischemia
Type: in vivo, SD male rats
Conditions: once per day for 37 days; for swimming time of the rats in the target: cerebral ischemia rats
Procedure: The protective effects of crystal form I of (S)-oxiracetam on memory dysfunction of rats caused by chronic cerebral ischemia. Material and method: The crystal form I of (S)-oxiracetam prepared in Example 1 and oxiracetam (batch number: 20071101, from Dong Ze Pharmaceutical Science and Technology Co., Ltd., Chong Qing, China) were prepared with normal saline solution freshly on being used. 40 SD male rats were used as experimental animals, and each of them was in a weight of 190 g to 220 g (purchased from Southwest Hospital, Chong Qing, China). The experimental animals were separated into four groups at random (10 animals per group): sham-operation group, cerebral ischemia group, experimental group with treatment of crystal form I of (S)-oxiracetam, control group with treatment of oxiracetam. The experimental group was treated with 100 mg/kg crystal form I of (S)-oxiracetam by intragastric administration, while the control group was treated with 200 mg/kg oxiracetam by intragastric administration, and both of the two group were treated once per day for 37 days since the day of beginning the surgery. The rats having permanent occlusion of the bilateral carotid arteries were used as model animals of cerebral ischemia group. The cerebral ischemia group, the experimental group and the control group were abdominally anaesthetized by 40 mg/kg pentobarbital natrium. The No. 4 threads were used to separate and ligate the bilateral carotid arteries. The arteries were cut at a position between the near and the far ligation points, and then the wounds made by cut were surgically stitched. The sham-operation group underwent surgery of separation of the bilateral carotid arteries and the wounds made by the surgeries were surgically stitched right away. The body temperature of the animals are maintained during the surgeries. Morris Water Maze system was used to assayed learning and memory ability of rats (diameter: 120 cm, height: 40 cm; purchased from Institute of Materia Medica (IMM), Chinese Academy of Medical Sciences & Peking Union Medical College). […]

## NC(=O)CN1CC(O)CC1=O (racemic) [oxiracetam, reference compound]
200 mg/kg intragastric, oxiracetam control group
  swimming time of the rats in the target: 31.23 ± 5.03 s

## NC(=O)CN1C[C@@H](O)CC1=O [crystal form I of (S)-oxiracetam, (S)-4-hydroxy-2-oxo-1-pyrrolidine acetamide]
100 mg/kg intragastric, vs 20.18±5.26 seconds, P<0.01
  swimming time of the rats in the target: 35.23 ± 7.03 s
100 mg/kg intragastric, compared with sham-operation group, cerebral ischemia group and oxiracetam control group
  escape latent periods: shorter escape latent periods
